The test system of one data set is cyclophilins. The data set is described as follows: Prolyl-isomerase inhibition screen on cyclophilins and cyclophilin mutants. It is filed as biochemical, human. The conditions noted are these: for potency on cyclophilin mutants compared to wild-type (in words): mutants as named at the place. The protocol: (§1) IC50 values were calculated to be the value at which 50% inhibition was achieved on each compound's non-linear regression fitted curve.

The target of another data set is T1, CypB (Homo sapiens, UniProt P23284).
T1 construct: PPIB (UniProtKB Entry P23284: res 34-216); His6 tag with TEV site (seen as […]- and […]- forms) (N); made in house; host or cells: E. coli BL21(DE3)
T1 sequence (P23284 34-216): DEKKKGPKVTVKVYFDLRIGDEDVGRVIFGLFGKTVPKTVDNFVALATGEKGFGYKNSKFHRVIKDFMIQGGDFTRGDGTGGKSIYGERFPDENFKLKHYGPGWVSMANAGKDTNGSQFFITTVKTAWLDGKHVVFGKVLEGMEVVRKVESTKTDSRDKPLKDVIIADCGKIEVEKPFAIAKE
The data set is described as follows: Chymotrypsin coupled prolyl-isomerase assay. The following applies: wild-type CypB. The format is biochemical. The protocol: as §1

The target in another data set is T2, CypD K118A (Homo sapiens, UniProt P30405, K118A).
T2 construct: made in house; host or cells: E. coli BL21(DE3)
T2 sequence (P30405 45-207 K118A): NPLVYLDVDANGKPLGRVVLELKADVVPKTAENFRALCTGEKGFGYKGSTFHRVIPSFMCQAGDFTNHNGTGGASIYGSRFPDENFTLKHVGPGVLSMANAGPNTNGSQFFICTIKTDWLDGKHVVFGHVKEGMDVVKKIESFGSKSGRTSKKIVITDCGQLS
The data set is described as follows: Chymotrypsin coupled prolyl-isomerase assay. The format is biochemical. The following applies: CypD K118A mutant; read-out: IC50^CypDK118A. The protocol: as §1

Data set [1] relates to CypD. The data set can be described thus: Chymotrypsin coupled prolyl-isomerase assay. The following applies: for selectivity for CypD over CypA: CypD versus wild-type CypA. The format is biochemical, human. The protocol: as §1
The next data set concerns the target T3, CypA (Homo sapiens, UniProt P62937).
T3 construct: PPIA (UniProtKB Entry P62937: res 1-165); made in house; host or cells: E. coli BL21(DE3)
The data set is described as follows: Chymotrypsin coupled prolyl-isomerase assay. It is filed as biochemical. The conditions noted are these: wild-type CypA. The protocol: as §1

The target in a further data set is T4, CypB E121S (Homo sapiens, UniProt P23284, E121S).
T4 construct: Lane 14-SNA-CypB E121S (34-216); His6 tag (N, cleaved yes); made in house; host or cells: E. coli BL21(DE3)
T4 sequence (P23284 34-216 E121S): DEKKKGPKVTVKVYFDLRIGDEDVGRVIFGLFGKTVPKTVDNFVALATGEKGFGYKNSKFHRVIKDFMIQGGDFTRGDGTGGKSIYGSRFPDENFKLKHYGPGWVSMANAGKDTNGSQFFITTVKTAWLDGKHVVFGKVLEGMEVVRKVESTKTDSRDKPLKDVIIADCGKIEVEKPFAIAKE
The data set can be described thus: Chymotrypsin coupled prolyl-isomerase assay. The format is biochemical. The conditions noted are these: CypB E121S gatekeeper mutant; read-out: IC50^CypBE121S. The protocol: as §1

The target of data set [2] is T5, CypD (Homo sapiens, UniProt P30405).
T5 construct: PPIF (UniProtKB Entry P30405: res 45-207); made in house; host or cells: E. coli BL21(DE3)
T5 sequence (P30405 45-207): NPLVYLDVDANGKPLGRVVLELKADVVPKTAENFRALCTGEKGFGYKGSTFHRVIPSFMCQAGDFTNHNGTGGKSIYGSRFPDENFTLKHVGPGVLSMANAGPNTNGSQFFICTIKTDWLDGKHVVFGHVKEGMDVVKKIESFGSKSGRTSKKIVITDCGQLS
The data set is described as follows: Chymotrypsin coupled prolyl-isomerase assay. The format is biochemical. The conditions noted are these: for IC50: wild-type CypD. The protocol: as §1

In another data set the target is T6, CypD K118E (Homo sapiens, UniProt P30405, K118E).
T6 construct: made in house; host or cells: E. coli BL21(DE3)
T6 sequence (P30405 45-207 K118E): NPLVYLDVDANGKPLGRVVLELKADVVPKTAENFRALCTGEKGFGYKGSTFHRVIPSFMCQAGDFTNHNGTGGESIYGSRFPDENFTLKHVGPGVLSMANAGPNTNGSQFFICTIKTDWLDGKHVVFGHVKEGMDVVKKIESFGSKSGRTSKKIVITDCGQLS
The data set can be described thus: Chymotrypsin coupled prolyl-isomerase assay. The format is biochemical. The following applies: CypD K118E mutant; read-out: IC50^CypDK118E. The protocol:
as §1

Another data set concerns the target T7, CypA E81S/K82R (Homo sapiens, UniProt P62937, E81S/K82R).
T7 construct: Lane 12-SNA-CypA E81S/K82R (1-165); His6 tag (N, cleaved yes); made in house; host or cells: E. coli BL21(DE3)
The data set is described as follows: Chymotrypsin coupled prolyl-isomerase assay. The following applies: CypA E81S/K82R gatekeeper mutant; read-out: IC50^CypAE81S/K82R. It is filed as biochemical. The protocol: as §1

In another data set the target is T8, CypD S123E (Homo sapiens, UniProt P30405, S123E).
T8 construct: made in house; host or cells: E. coli BL21(DE3)
T8 sequence (P30405 45-207 S123E): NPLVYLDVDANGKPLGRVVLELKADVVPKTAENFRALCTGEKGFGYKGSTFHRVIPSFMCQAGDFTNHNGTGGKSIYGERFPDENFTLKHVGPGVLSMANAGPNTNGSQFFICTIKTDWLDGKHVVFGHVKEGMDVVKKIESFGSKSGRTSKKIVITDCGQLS
The data set is described as follows: Chymotrypsin coupled prolyl-isomerase assay. The format is biochemical. The conditions noted are these: CypD S123E gatekeeper mutant; read-out: IC50^CypDS123E. The protocol: as §1

Data set [3] concerns A549, HeLa, HEK293T, HepG2, and MEFs. The data set can be described thus: Cellular esterase activity on ester pro-drug Cy5 derivatives. The conditions noted are these: 6 μM, 48 hours (36 hours for HepG2). It is filed as in vitro ADME, human and mouse. The protocol:
Cellular esterase activity on ester pro-drug Cy5 derivatives of CypD inhibitors. Into 96-well clear, flat-bottom TC-treated plates, cells were seeded in DMEM supplemented with 10% FBS for HEK293T, HeLa, and MEFs, F-12K supplemented with 10% FBS for A549, or MEM supplemented with 10% FBS for HepG2, 24 hours prior at a density where wells were ˜70% confluent at time of experiment. Media was removed and cells were incubated with 100 μL of mixture containing each Cy5-conjugated compound (6 μM) in their respective media at 1% DMSO for 48 hours (36 hours for HepG2) at 37° C. at 5% CO2. Supernatant was removed, and cells were washed 2 times with 100 μL of PBS pH 7.4 (Gibco). Cells were then lysed for 15 minutes with 30 μL of 10 mM Tris-HCl pH 8.0 buffer containing 0.05% SDS. Lysates were diluted with 100 μL acetonitrile and filtered. Lysates were analyzed by LC-MS at Harvard's Center for Mass Spectroscopy. Di-ester, mono-ester, and di-acid abundances were quantified by total ion count of the primary isotope, and the three compounds were summed and each one expressed as a fraction of the total sum.

A further data set concerns HeLa cells. The data set is described as follows: Fluorescence microscopy on HeLa cells. The following applies: Cy5 labeled compound 6 μM. The format is cell-based, human. The protocol: Fluorescence microscopy on Hela cells. Into 96 well black, clear bottom TC treated plates, cells were seeded in Dulbecco's Modified Eagle Medium (DMEM) supplemented with 10% fetal bovine serum 24 hours prior at a density where wells were ˜80% confluent at time of experiment. Media was removed and cells were then stained with 50 μL of mixture containing Cy5 labeled compound (6 μM) in Kreb's ringer solution HEPES buffered pH 7.2 (KRB), for 1 hour at 37° C. Then, 50 μL Hoechst 33342 (8 μM) and Mitotracker Green FM (0.1 μM) in KRB was added directly to wells containing cells and incubated for 15 minutes at 37° C. Media was removed and cells were washed two times with 100 μL KRB. Cells were then kept adherent to the wells in 100 μL KRB for imaging. Fluorescence microscopy was conducted on an Opera Phenix Plus High-Content Screening System, using Alexa 488, Alexa 647, and Hoescht 33342 channels. Images were analyzed using Harmony 4.9.

For data set [4], the target named is T9, human carboxylesterase (CES1) (Homo sapiens, UniProt P23141).
T9 sequence (P23141 18-567): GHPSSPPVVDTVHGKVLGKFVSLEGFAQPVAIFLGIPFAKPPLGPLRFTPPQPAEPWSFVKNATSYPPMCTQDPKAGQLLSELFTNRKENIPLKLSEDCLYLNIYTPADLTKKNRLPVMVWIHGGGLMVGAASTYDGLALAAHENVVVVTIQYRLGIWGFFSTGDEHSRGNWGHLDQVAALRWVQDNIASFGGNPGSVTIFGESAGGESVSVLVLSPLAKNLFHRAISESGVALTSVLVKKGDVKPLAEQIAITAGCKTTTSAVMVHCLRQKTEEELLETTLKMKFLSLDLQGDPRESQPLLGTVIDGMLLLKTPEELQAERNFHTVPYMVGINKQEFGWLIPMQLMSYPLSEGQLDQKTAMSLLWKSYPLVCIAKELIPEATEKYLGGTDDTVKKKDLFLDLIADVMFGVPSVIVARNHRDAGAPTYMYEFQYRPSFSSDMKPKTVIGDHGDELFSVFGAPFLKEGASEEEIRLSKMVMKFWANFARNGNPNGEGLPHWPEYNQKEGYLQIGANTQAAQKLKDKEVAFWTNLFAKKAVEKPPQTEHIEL
The data set is described as follows: In vitro esterase activity on ester pro-drug Cy5 derivatives. The format is in vitro ADME. The conditions noted are these: 0.25 μM CES1, 37° C., 8 hours. The protocol: In vitro esterase activity on ester pro-drug Cy5 derivatives of CypD inhibitors. Into PCR tubes, ester compound (6 μM) and either buffer only, CES1 (0.25 μM), or CES2 (0.25 μM) was diluted in 100 mM Tris-HCl buffer, pH 7.4, with a final DMSO concentration of 1%. Samples were maintained on a PCR block at 37° C. for 8 hours. After incubation, samples were diluted with 20 μL acetonitrile and analyzed by LC-MS at Harvard's Center for Mass Spectroscopy. Di-ester, mono-ester, and di-acid abundances were quantified by total ion count of the primary isotope, and the three compounds were summed and each one expressed as a fraction of the total sum.

A further data set deals with T10, CypD R124A (Homo sapiens, UniProt P30405, R124A).
T10 construct: made in house; host or cells: E. coli BL21(DE3)
T10 sequence (P30405 45-207 R124A): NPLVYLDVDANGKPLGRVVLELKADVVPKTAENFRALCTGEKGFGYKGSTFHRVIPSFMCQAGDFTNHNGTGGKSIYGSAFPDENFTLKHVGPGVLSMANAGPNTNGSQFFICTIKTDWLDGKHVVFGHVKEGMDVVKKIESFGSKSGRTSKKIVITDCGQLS
The data set is described as follows: Chymotrypsin coupled prolyl-isomerase assay. The format is biochemical. The conditions noted are these: CypD R124A mutant; read-out: IC50^CypDR124A. The protocol:
as §1

In the next data set the target is T11, CypD K118E/R124A (Homo sapiens, UniProt P30405, K118E/R124A).
T11 construct: made in house; host or cells: E. coli BL21(DE3)
T11 sequence (P30405 45-207 K118E/R124A): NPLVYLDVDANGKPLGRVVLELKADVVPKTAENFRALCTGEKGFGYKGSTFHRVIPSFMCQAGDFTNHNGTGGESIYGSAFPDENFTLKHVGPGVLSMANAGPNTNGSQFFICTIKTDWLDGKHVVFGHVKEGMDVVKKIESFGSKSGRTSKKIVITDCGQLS
The data set is described as follows: Chymotrypsin coupled prolyl-isomerase assay. It is filed as biochemical. The protocol:
as §1

T3 sequence (P62937 whole entry): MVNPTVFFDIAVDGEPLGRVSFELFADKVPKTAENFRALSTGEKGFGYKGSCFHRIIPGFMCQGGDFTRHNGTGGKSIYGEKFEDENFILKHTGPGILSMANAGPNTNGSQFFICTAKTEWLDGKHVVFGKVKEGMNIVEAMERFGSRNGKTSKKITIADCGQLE
T7 sequence (P62937 whole entry E81S/K82R): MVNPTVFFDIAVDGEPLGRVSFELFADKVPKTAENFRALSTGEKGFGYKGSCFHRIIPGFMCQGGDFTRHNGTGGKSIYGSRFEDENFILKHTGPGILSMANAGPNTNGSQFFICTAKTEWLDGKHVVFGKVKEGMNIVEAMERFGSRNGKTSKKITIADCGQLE

`NCCOCCNC(=O)[C@@H]1CCNC(=O)/C=C/C(=O)N2CCC[C@](Cc3ccccc3)(C2)C(=O)N[C@@H](Cc2ccc(-c3ccc(C(CC(=O)O)CC(=O)O)cc3)cc2)C(=O)NCc2ccccc2CC(=O)N1` [Compound B53]: in the data set on cyclophilins, the “cyclophilin selectivity profile (in words)” value is “high potency and selectivity for CypD”. In addition, the “potency on cyclophilin mutants compared to wild-type (in words)” value in the data set on cyclophilins is reported as “little to no ablation of potency”. Also, the IC50 was determined as 1100 nM at CypB; 900 nM at CypD K118A; 3400 nM against CypA; 50 nM at CypB E121S; 57 nM against CypD [2]; 4000 nM on CypD K118E. Further, the IC50 on CypA E81S/K82R is 180 nM; on CypD S123E, 800 nM. Besides, the “selectivity for CypD over CypA” value in the data set on CypD [1] was 100 fold.

For the molecule `CCOC(=O)C(Cc1ccc(-c2ccc(C[C@H]3NC(=O)[C@@]4(Cc5ccccc5)CCCN(C4)C(=O)/C=C/C(=O)NCC[C@H](C(=O)NCCNC(=O)CCCCCN4\C(=C/C=C/C=C/C5=[N+](C)c6ccccc6C5(C)C)C(C)(C)c5ccccc54)NC(=O)Cc4ccccc4CNC3=O)cc2)cc1)C(=O)OCC` [*B52-Et-Cy5], the “intracellular conversion to di-acid by endogenous esterases” value in [3] is on record as “readily converted to the corresponding di-acid”. In the data set on HeLa cells, the “mitochondrial localization (overlap with Mitotracker Green)” value is “good mitochondrial localization”; the “plasma membrane / mammalian cell permeability” value was “Strong mammalian cell permeability and mitochondrial localization”. Moreover, the “hydrolysis of ester prodrug by CES1” value in [4] is given as “hydrolyzed to their active dicarboxylate forms”. Further, the “CypD prolyl-isomerase inhibition (in words)” value at CypD [2] is “did not potently inhibit”.

For the molecule `NCCCc1ccc(-c2ccc(C[C@@H]3NC(=O)[C@]4(Cc5ccccc5)CCCN(C4)C(=O)/C=C/C(=O)NCC[C@@H](C(=O)NCCOCCN)NC(=O)Cc4ccccc4CNC3=O)cc2)cc1` [Compound B32], in the data set on cyclophilins, the “inhibition of cyclophilins tested (in words)” value is recorded as “overall poor potency for each cyclophilin”. Besides, the IC50 came to 700 nM at CypD R124A; 60 nM at CypD K118E/R124A (CypD double mutant, read-out: IC50^CypDK11E/R124A); 6000 nM on CypD [2]; 1100 nM on CypD K118E. Further, the “preference for CypD K118E/R124A over the nearest cyclophilin, PPWD1” value on CypD K118E/R124A was “at least 13 fold”. Moreover, the “improvement compared to wild-type CypD” value on CypD K118E/R124A (CypD K118E/R124A) was 100 fold. In the data set with CypD [1] (CypD mutants K118E and R124A), the “inhibition potency improvement compared to wild-type CypD” value was 5- to 6 fold. In addition, the “reduction in CypD potency” value on CypD [2] (on inserting an amine with a net positive charge) is listed as > 1,000 fold.

On to `CCOC(=O)CC(CC(=O)OCC)c1ccc(-c2ccc(C[C@H]3NC(=O)[C@@]4(Cc5ccccc5)CCCN(C4)C(=O)/C=C/C(=O)NCC[C@H](C(=O)NCCNC(=O)CCCCCN4\C(=C/C=C/C=C/C5=[N+](C)c6ccccc6C5(C)C)C(C)(C)c5ccccc54)NC(=O)Cc4ccccc4CNC3=O)cc2)cc1` [*B53-Et-Cy5], for which, in the data set with HeLa cells, the “mitochondrial localization (overlap with Mitotracker Green)” value is “good mitochondrial localization”; the “plasma membrane / mammalian cell permeability” value was “Strong mammalian cell permeability and mitochondrial localization”. For the same molecule, the “hydrolysis of ester prodrug by CES1” value in [4] was “hydrolyzed to their active dicarboxylate forms”. Also, the “CypD prolyl-isomerase inhibition (in words)” value on CypD [2] is reported as “did not potently inhibit”.

On to `NCCOCCNC(=O)[C@@H]1CCNC(=O)/C=C/C(=O)N2CCC[C@](Cc3ccccc3)(C2)C(=O)N[C@@H](Cc2ccc(-c3ccc(CC(C(=O)O)C(=O)O)cc3)cc2)C(=O)NCc2ccccc2CC(=O)N1` [Compound B52], for which the “cyclophilin selectivity profile (in words)” value in the data set with cyclophilins is “high potency and selectivity for CypD”. The “potency on cyclophilin mutants compared to wild-type (in words)” value with cyclophilins is “little to no ablation of potency”. In addition, the IC50 worked out at 210 nM against CypB; 73 nM on CypD K118A; 1100 nM against CypA; 8 nM at CypB E121S; 10 nM against CypD [2]; 300 nM on CypD K118E. Besides, the results for the IC50 on CypA E81S/K82R and on CypD S123E were 27 nM and 240 nM, respectively. The “selectivity for CypD over CypA” value in the data set on CypD [1] was found to be 100 fold.

The record behind these values is patent US20250109165A1, “CYCLOPHILIN INHIBITORS AND USES THEREOF” (The Broad Institute, Inc., priority 2022, published 2025).
